Data: ChEMBL document CHEMBL1201862, “PubChem BioAssay data set” (2004)
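How tested: cells in 96-well plates exposed to compound for 48 hours at five concentrations. GI50 = concentration required for 50% inhibition of growth.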 The source made the active and inactive calls. Cut-off read from the data, not from the text of the source: active = GI50 up to about 1.1 µM and inactive = higher. Where a SMILES comes first, the peptide text is derived from it. The star is where a group is joined. CH2Cl = ClC*

Assays:
Experiment in all cases: inhibition of tumour cell growth, NCI panel, 48 h
NCI/ADR-RES = system: NCI/ADR-RES
SN12C = system: SN12C
MOLT-4 = system: MOLT-4
NCI-H522 = system: NCI-H522
DU-145 = system: DU-145
K562 = system: K562
RXF 393 = system: RXF 393
HT-29 = system: HT-29
SF-268 = system: SF-268
RPMI-8226 = system: RPMI-8226
ACHN = system: ACHN
MDA-MB-231 = system: MDA-MB-231
SF-295 = system: SF-295
HOP-62 = system: HOP-62
T47D = system: T47D
NCI-H226 = system: NCI-H226
A549 = system: A549
HCT-15 = system: HCT-15
HCT-116 = system: HCT-116
Malme-3M = system: Malme-3M

SMILES	GI50 (NCI/ADR-RES)	GI50 (SN12C)	GI50 (MOLT-4)	GI50 (NCI-H522)	GI50 (DU-145)	GI50 (K562)	GI50 (RXF 393)	GI50 (HT-29)	GI50 (SF-268)	GI50 (RPMI-8226)	GI50 (ACHN)	GI50 (MDA-MB-231)	GI50 (SF-295)	GI50 (HOP-62)	GI50 (T47D)	GI50 (NCI-H226)	GI50 (A549)	GI50 (HCT-15) [µM]	GI50 (HCT-116)	GI50 (Malme-3M)
COc1ccc(C2=NNC(=O)c3ccccc3N2c2nc(-c3cccs3)nc3ccc(Br)cc23)cc1	19.1 µM (inactive)	56 µM (inactive)	65.8 µM (inactive)	64.9 µM (inactive)	39.9 µM (inactive)	99.5 µM (inactive)	68.4 µM (inactive)	> 100 µM (inactive)	31 µM (inactive)	52.2 µM (inactive)	61.2 µM (inactive)	43.2 µM (inactive)	20.6 µM (inactive)	17.6 µM (inactive)	23.7 µM (inactive)	19.8 µM (inactive)	60.7 µM (inactive)	34.2	69.5 µM (inactive)	25.2 µM (inactive)
COC(=O)[C@@H]1CN(C(=O)CCc2ccccc2)C(=O)N1	> 100 µM (inactive)	> 100 µM (inactive)	> 100 µM (inactive)	> 100 µM (inactive)	> 100 µM (inactive)	> 100 µM (inactive)	> 100 µM (inactive)	> 100 µM (inactive)	> 100 µM (inactive)	> 100 µM (inactive)	> 100 µM (inactive)	> 100 µM (inactive)	> 100 µM (inactive)	> 100 µM (inactive)	> 100 µM (inactive)	> 100 µM (inactive)	> 100 µM (inactive)	> 100	> 100 µM (inactive)	> 100 µM (inactive)
CSC(=S)Nc1cc(C)cc(C)n1	> 31.6 µM (inactive)	> 31.6 µM (inactive)	> 31.6 µM (inactive)	18.7 µM (inactive)	> 31.6 µM (inactive)	> 31.6 µM (inactive)	> 31.6 µM (inactive)	> 31.6 µM (inactive)	> 31.6 µM (inactive)	> 31.6 µM (inactive)	> 31.6 µM (inactive)	> 100 µM (inactive)	> 31.6 µM (inactive)	> 100 µM (inactive)	> 31.6 µM (inactive)	> 31.6 µM (inactive)	> 31.6 µM (inactive)	> 31.6	> 10 µM (inactive)	> 31.6 µM (inactive)
CC(=O)NC(CC(C)C)C(=O)NC(Cc1ccccc1)C(=O)CCl (stereo not drawn) (Ac-Leu-Phe-CH2Cl; configuration not given here)	10.9 µM (inactive)	13.4 µM (inactive)	1.84 µM (inactive)	2.51 µM (inactive)	12.1 µM (inactive)	1.63 µM (inactive)	1.96 µM (inactive)	8.38 µM (inactive)	17.9 µM (inactive)	2.69 µM (inactive)	11.1 µM (inactive)	12.1 µM (inactive)	18.8 µM (inactive)	18.3 µM (inactive)	7.82 µM (inactive)	21.6 µM (inactive)	20.7 µM (inactive)	3.16	5.22 µM (inactive)	5.05 µM (inactive)
O=c1cc(-c2ccccc2)[nH]c2ccc(N3CCOCC3)cc12	0.0435 µM (active)	0.0467 µM (active)	0.104 µM (active)	0.0173 µM (active)	0.038 µM (active)	< 0.0127 µM (active)	0.04 µM (active)	0.0211 µM (active)	0.0407 µM (active)	0.065 µM (active)	0.0611 µM (active)	0.0618 µM (active)	0.0236 µM (active)	0.0241 µM (active)	> 100 µM (inactive)	0.0319 µM (active)	0.0773 µM (active)	0.0241	< 0.0167 µM (active)	14 µM (inactive)
CCC(CC)C(=O)OC[n+]1cccc(-c2c(COC(=O)NC(C)C)c(COC(=O)NC(C)C)c3n2CCC3)c1	63.2 µM (inactive)	58.2 µM (inactive)	33.3 µM (inactive)	56.2 µM (inactive)	> 100 µM (inactive)	97.5 µM (inactive)	61.4 µM (inactive)	> 100 µM (inactive)	62.8 µM (inactive)	> 100 µM (inactive)	40.8 µM (inactive)	> 100 µM (inactive)	> 100 µM (inactive)	43.4 µM (inactive)	> 100 µM (inactive)	> 100 µM (inactive)	> 100 µM (inactive)	> 100	> 100 µM (inactive)	> 100 µM (inactive)
O=c1oc2ccccc2cc1/C=N/N1C(=S)N(c2ccccc2)C(=N\c2ccccc2)/C1=N/c1ccccc1	> 100 µM (inactive)	> 100 µM (inactive)	> 100 µM (inactive)	34 µM (inactive)	> 100 µM (inactive)	> 100 µM (inactive)	26.4 µM (inactive)	> 10 µM (inactive)	> 100 µM (inactive)	> 100 µM (inactive)	39.6 µM (inactive)	> 100 µM (inactive)	28.1 µM (inactive)	52.2 µM (inactive)	3.49 µM (inactive)	> 100 µM (inactive)	> 100 µM (inactive)	> 100	41.4 µM (inactive)	> 100 µM (inactive)
Clc1ccc(CCNCCNC2(c3cc4ccccc4s3)CCCCC2)cc1Cl	1.8 µM (inactive)	1.96 µM (inactive)	2.49 µM (inactive)	1.84 µM (inactive)	1.88 µM (inactive)	2.31 µM (inactive)	2.01 µM (inactive)	1.83 µM (inactive)	1.79 µM (inactive)	2.34 µM (inactive)	1.73 µM (inactive)	1.78 µM (inactive)	1.59 µM (inactive)	1.26 µM (inactive)	1.95 µM (inactive)	1.87 µM (inactive)	1.81 µM (inactive)	1.92	1.73 µM (inactive)	1.88 µM (inactive)
CC[P+](c1ccccc1)(N(C)C)N(C)C	> 100 µM (inactive)	> 100 µM (inactive)	> 100 µM (inactive)	89.5 µM (inactive)	> 100 µM (inactive)	> 100 µM (inactive)	> 100 µM (inactive)	> 100 µM (inactive)	95.1 µM (inactive)	71.9 µM (inactive)	> 100 µM (inactive)	> 100 µM (inactive)	> 100 µM (inactive)	> 100 µM (inactive)	> 100 µM (inactive)	59.8 µM (inactive)	> 100 µM (inactive)	> 100	> 100 µM (inactive)	> 100 µM (inactive)
Cc1cc(=O)n2c3c(c4c(cc13)c(CN(C)C)cc(=O)n4C)OC2	15 µM (inactive)	20.3 µM (inactive)	7.48 µM (inactive)	0.9 µM (active)	20 µM (inactive)	29.8 µM (inactive)	6.56 µM (inactive)	8.13 µM (inactive)	15.5 µM (inactive)	25.2 µM (inactive)	4.97 µM (inactive)	33.3 µM (inactive)	16.9 µM (inactive)	15.2 µM (inactive)	38.5 µM (inactive)	9.04 µM (inactive)	10 µM (inactive)	6.15	5.2 µM (inactive)	12.4 µM (inactive)
O=C(O)c1cc(C(=O)O)nc(C(=O)O)c1	> 100 µM (inactive)	> 100 µM (inactive)	> 100 µM (inactive)	> 100 µM (inactive)	> 100 µM (inactive)	> 100 µM (inactive)	> 100 µM (inactive)	> 100 µM (inactive)	> 100 µM (inactive)	> 100 µM (inactive)	> 100 µM (inactive)	> 100 µM (inactive)	> 100 µM (inactive)	> 100 µM (inactive)	> 100 µM (inactive)	> 100 µM (inactive)	> 100 µM (inactive)	> 100	> 100 µM (inactive)	> 100 µM (inactive)
Cc1cc(S(=O)(=O)Nc2nnc3cc(C(F)(F)F)cc(C)n23)c(S)cc1Cl	45.5 µM (inactive)	> 100 µM (inactive)	> 100 µM (inactive)	> 100 µM (inactive)	> 100 µM (inactive)	> 100 µM (inactive)	> 100 µM (inactive)	> 100 µM (inactive)	> 100 µM (inactive)	> 100 µM (inactive)	> 100 µM (inactive)	> 83 µM (inactive)	55.1 µM (inactive)	35.2 µM (inactive)	> 100 µM (inactive)	> 54.6 µM (inactive)	21.3 µM (inactive)	> 91.6	> 81.8 µM (inactive)	> 100 µM (inactive)
COc1c(O)c2ccccc2c2cc(O)ccc12	6.98 µM (inactive)	5.2 µM (inactive)	8.61 µM (inactive)	5.4 µM (inactive)	8.22 µM (inactive)	2.72 µM (inactive)	9.93 µM (inactive)	21 µM (inactive)	10.8 µM (inactive)	7.21 µM (inactive)	3.55 µM (inactive)	3.91 µM (inactive)	10 µM (inactive)	10.6 µM (inactive)	13.5 µM (inactive)	13.6 µM (inactive)	8.65 µM (inactive)	6.34	4.53 µM (inactive)	1.66 µM (inactive)
Cc1n(Cc2ccccc2)c2c([n+]1C)C(=O)c1ccccc1C2=O	21.1 µM (inactive)	0.0318 µM (active)	0.0421 µM (active)	0.027 µM (active)	0.156 µM (active)	0.0366 µM (active)	0.294 µM (active)	0.0417 µM (active)	0.0274 µM (active)	0.0296 µM (active)	0.873 µM (active)	0.0583 µM (active)	0.199 µM (active)	0.0407 µM (active)	0.215 µM (active)	0.237 µM (active)	0.0478 µM (active)	2.56	0.0416 µM (active)	0.0171 µM (active)
